Measurements taken from US20190091173A1, “METHOD OF […] BETWEEN […]” (ZOGENIX INTERNATIONAL LIMITED, priority 2017, published 2019).

Columns and labels:
[1] = system: convulsive seizures in subjects with Dravet syndrome; assay: Study 1 (ZX008-1501/ZX008-1502), Phase 3, randomized, double-blind, placebo-controlled; type: in vivo, human; details: 0.2 mg/kg/day, end of T+M Period, SD 140.46, p=0.735
Method: The first 119 subjects to be randomized in both identical studies combined were analyzed and reported as Study 1 (FIG. 1), covered by a Statistical Analysis Plan (SAP).
Primary and key secondary endpoints in the Study 1 SAP were pre-determined. All patients were treated twice per day over a period of 14 weeks using an oral syringe to administer the formulation. The treatment period included a two-week titration period and a 12-week maintenance period.
The initial results of Study 1 are outlined below. The randomized, double blind, placebo controlled, Phase 3 study enrolled 119 patients across sites in the United States, Canada, Europe and Australia. The median age of patients was 8 years, the mean age of patients was 9 years (range, 2-18 years) (FIG. 2).
Patients were titrated to their target dose over two weeks, and then remained at that fixed dose for 12 weeks. The mean baseline convulsive seizure frequency across the study groups was approximately 40 seizures per month. 110 (92%) patients completed the study (85% 0.8 mg/kg/day; 100% 0.2 mg/kg/day; 93% placebo). […]
The mean number of convulsive seizure free days, defined as a day for which diary data are available and no convulsive seizures have been reported, was determined for each treatment group during the Baseline and T+M Periods. […]

[2] = system: seizures in patients with Dravet syndrome; details: long-term fenfluramine treatment; cited from earlier work

In the case of `CCNC(C)Cc1cccc(C(F)(F)F)c1` (stereo not shown) [Fenfluramine, 3-trifluoromethyl-N-ethylamphetamine], the “reduction from Baseline in non-convulsive seizures (all types) per 28 days” value [1] is given as 9.7%, the “effect on types of seizures” value [2] is given as “effectively reduced the incidence of all types of seizures” and the reduction in seizures [2] is given as 75%. For the same compound, the “test subjects in seizure-free condition” value [2] was 66.6%.
